From article PMC4841555, “Optimization of the All-D Peptide D3 for Aβ Oligomer Elimination” (PLoS ONE, 2016)
Non-standard residues stand in square brackets, D forms with d. Residues, ends and D or L forms follow the SMILES beside them.

Columns and labels:
PC12 cells = assay: MTT cell viability assay; assay type: cell-based, rat; details: 5 μM peptide without Aβ, 24 h
Procedure: Rat pheochromocytoma PC12 cells (Leibniz Institute DSMZ, Braunschweig, Germany) were cultivated in DMEM medium supplemented with 10% fetal bovine serum and 5% horse serum. 10,000 cells per well were seeded on collagen-coated 96 well plates (Gibco, Life technology, Carlsberg, USA) and incubated in a 95% humidified atmosphere with 5% CO2 at 37°C for 24 h. […] DB peptide was then added at different concentrations and incubated for further 40 min at 21°C and 600 rpm agitation before addition to the PC12 cells. […] Cell viability was then measured using the Cell proliferation Kit I (MTT) (Roche, Basel, Switzerland) according to the manufacturer’s instruction. The absorbance of the formazan product was determined by measuring at 570 nm after subtracting the absorption at 660 nm. For absorption measurements, a Polarstar Optima plate reader (BMG, Offenburg, Germany) was used. All results were normalized to cells that were treated with buffer only.
The cell viability assay was performed using PC12 cells in a MTT test. […] The absorption of buffer treated cells was set to 100% cell viability. […] The Mann-Whitney-U-test was used for statistical analysis. * p < 0.05; ** p < 0.01; *** p < 0.001.

[1] = target: T1, preformed Aβ(1–42) aggregates (Homo sapiens, UniProt P05067); assay: Aβ aggregate disassembly ELISA; assay type: biochemical; details: 400 nM Aβ(1–42) preincubated 22 h at 37°C, then with peptide 22 h (24 h) at 37°C, ELISA, triplicate
T1 construct: Aβ(1–42), N-terminally biotinylated Aβ(1–42) and FITC-Aβ(1–42) were purchased from Bachem; purchased Bachem (Heidelberg, Germany)
Procedure: Freshly dissolved monomeric Aβ(1–42) (400 nM in 500 mM Tris-buffer pH 7.4) was incubated in a humidity chamber for 22 h at 37°C in order to preform Aβ(1–42) aggregates. These preformed aggregates were coincubated with D-peptide in different concentrations (0.01, 0.05, 0.1, 0.5, 1, 5, 10, 50, 100 μM for DB3 or with half of the molar concentrations in case of DB3DB3) for additional 22 h at 37°C. The content of Aβ aggregates was measured and evaluated in the same way as the aggregation inhibition ELISA.
Fig 5 Inhibition of Aβ fibril formation and Aβ aggregation disassemble by DB3 and DB3DB3. A) Monomeric Aβ(1–42) (400 nM) was mixed with different concentrations of DB3 (0.01, 0.05, 0.1, 0.5, 1, 5, 10, 50, 100 μM) and the aggregation state of Aβ was analyzed using an Aβ aggregate specific ELISA. For DB3DB3 half of the molar concentrations compared to DB3 were used. Aβ without DB3 and DB3DB3 addition was taken as control. For DB3 an EC50 of 6 μM was calculated using a logistic fit model. DB3DB3 inhibited the formation of Aβ fibrils more efficiently with an EC50 of 7 nM. B) The disassembly properties of DB3 and DB3DB3 were measured using an Aβ aggregation specific ELISA. Monomeric Aβ(1–42) (400 nM) was preincubated in order to form fibrils and mixed with nine different concentrations of DB3 (0.01, 0.05, 0.1, 0.5, 1, 5, 10, 50, 100 μM). For DB3DB3, the molar concentrations were half those used for DB3. […] DB3DB3 disassembled Aβ aggregates at the lowest concentration […]. Thus, the EC50 could not be determined, but is < 10 nM. All data were determined in triplicate. The Mann-Whitney-U-test was performed for statistical analysis. * p< 0.05; ** p < 0.01; *** p < 0.001
The Aβ aggregate disassembly ELISA was used to analyze the effect of DB3 and DB3DB3 on preformed Aβ aggregates (Fig 5B). […] The Aβ aggregates specific ELISA was used to quantify Aβ aggregates. […] The results of measured Aβ aggregates normalized to the Aβ control were plotted against the peptide concentration. The EC50 was calculated by a logarithmic dose response function.

Aβ(1–42) monomers = target: T2, Aβ(1–42) monomers (Homo sapiens, UniProt P05067); assay: Biolayer interferometry (BLI) KD determination; assay type: binding; details: N-terminally biotinylated Aβ(1–42) immobilised on streptavidin biosensors, 20 mM sodium phosphate pH 7.4, steady state, Langmuir 1:1 model, mean ± SD of triplicate
T2 construct: N-terminally biotinylated Aβ(1–42) monomers were immobilized on streptavidin biosensors; purchased Bachem (Heidelberg, Germany)
Procedure: BLI experiments were performed using an Octet RED96 instrument (fortéBIO, PALL Life Science, Menlo Park, USA). N-terminally biotinylated Aβ(1–42) was dissolved in HFIP, lyophilized and dissolved in 2 mM aqueous sodium hydroxide (1 mg/ml) in order to destroy any pre-existing aggregates. The Aβ(1–42) solution was neutralized by dilution in running buffer (20 mM sodium phosphate buffer, pH 7.4) to a final concentration of 20 μg/ml and directly immobilized on Super Streptavidin biosensors (SSA) (fortéBIO, PALL Life Science, Menlo Park, USA) to a final depth of 3 nm. Ligand biosensors and reference biosensors were quenched with 20 μg/ml biotin for 7 min.
For KD determinations, the binding of a dilution series of DB3 (200, 100, 50, 25, 12.5, 6.25, 3.125 μM) or DBDB3 (20, 10, 5, 2.5, 1.25, 0.625, 0.3125 μM) was detected in parallel to the ligand biosensors and reference biosensors. A separate buffer cycle was used for double referencing. […]
Fig 4 KD determination of DB3 and DB3DB3 to monomeric Aβ using biolayer interferometry (BLI). N-terminally biotinylated Aβ(1–42) monomers were immobilized on streptavidin biosensors and the binding of DB3 and DB3DB3 was detected. Representative double referenced sensorgrams of a dilution series of DB3 (A) and DB3DB3 (B) are shown, including the equilibrium dissociation constants (KD) as means ± SD of data recorded in triplicate. […]

T1 sequence (P05067 672-713 limits assumed): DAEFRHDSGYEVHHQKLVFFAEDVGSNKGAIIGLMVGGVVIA
T2 sequence (P05067 672-713 limits assumed): as above

EC50 [1]: 2.5 µM
Kd (Aβ(1–42) monomers): 74.7 µM
Structure (SMILES): CC[C@@H](C)[C@@H](NC(=O)[C@H]1CCCN1C(=O)[C@H](N)CCCNC(=N)N)C(=O)N[C@@H](C(=O)N[C@H](CCCNC(=N)N)C(=O)N[C@H](CC(C)C)C(=O)N[C@H](CCCNC(=N)N)C(=O)N[C@@H](C(=O)N[C@H](Cc1c[nH]cn1)C(=O)N[C@H](CCC(N)=O)C(=O)N[C@H](CC(N)=O)C(=O)N[C@H](CCCNC(=N)N)C(N)=O)[C@H](C)O)[C@H](C)O [DB3] (H-[dR][dP][dI][dT][dR][dL][dR][dT][dH][dQ][dN][dR]-NH2)
effect of peptide alone on PC12 cell viability (PC12 cells): not toxic
